Measurements taken from ChEMBL document CHEMBL3044945, “Synthesis of 1,3,5-trisubstituted pyrazoline nucleus containing compounds and screening for antimicrobial activity” (2012).
In brackets after ≈: the same amount, converted by molar mass.

What was measured:
Type in all cases: functional
Micrococcus luteus [1] = test: Antibacterial activity against Micrococcus luteus MTCC 1538 at 500 ug/ml after 48 hr by cup-plate method; conditions: MTCC 1538, 48 h, read-out: DIZ
Bacillus subtilis [2] = test: Antibacterial activity against Bacillus subtilis MTCC 441 at 1250 ug/ml after 48 hr by cup-plate method; conditions: MTCC 441, 48 h, read-out: DIZ
Pseudomonas fluorescens [3] = test: Antibacterial activity against Pseudomonas fluorescens MTCC 2421 at 500 ug/ml after 48 hr by cup-plate method; conditions: MTCC 2421, 48 h, read-out: DIZ
Bacillus subtilis [4] = test: Antibacterial activity against Bacillus subtilis MTCC 441 at 500 ug/ml after 48 hr by cup-plate method; conditions: MTCC 441, 48 h, read-out: DIZ
Staphylococcus aureus [5] = test: Antibacterial activity against Staphylococcus aureus MTCC 1430 after 24 to 48 hr by tube dilution method
Bacillus subtilis [6] = test: Antibacterial activity against Bacillus subtilis MTCC 441 at 100 ug/ml after 48 hr by cup-plate method; conditions: MTCC 441, 48 h, read-out: DIZ
Penicillium chrysogenum [7] = test: Antifungal activity against Penicillium chrysogenum MTCC 161 at 250 ug/ml after 48 hr by cup-plate method; conditions: MTCC 161, 48 h, read-out: DIZ
Bacillus subtilis [8] = test: Antibacterial activity against Bacillus subtilis MTCC 441 after 24 to 48 hr by tube dilution method
Bacillus pumilus [9] = test: Antibacterial activity against Bacillus pumilus MTCC 1456 at 500 ug/ml after 48 hr by cup-plate method; conditions: MTCC 1456, 48 h, read-out: DIZ
Pseudomonas fluorescens [10] = test: Antibacterial activity against Pseudomonas fluorescens MTCC 2421 at 1000 ug/ml after 48 hr by cup-plate method; conditions: MTCC 2421, 48 h, read-out: DIZ
Escherichia coli [11] = test: Antibacterial activity against Escherichia coli MTCC 1573 after 24 to 48 hr by tube dilution method
Escherichia coli [12] = test: Antibacterial activity against Escherichia coli MTCC 1573 at 1250 ug/ml after 48 hr by cup-plate method; conditions: MTCC 1573, 48 h, read-out: DIZ
Penicillium chrysogenum [13] = test: Antifungal activity against Penicillium chrysogenum MTCC 161 at 1250 ug/ml after 48 hr by cup-plate method; conditions: MTCC 161, 48 h, read-out: DIZ
Pseudomonas aeruginosa [14] = test: Antibacterial activity against Pseudomonas aeruginosa MTCC 424 at 500 ug/ml after 48 hr by cup-plate method; conditions: MTCC 424, 48 h, read-out: DIZ
Bacillus pumilus [15] = test: Antibacterial activity against Bacillus pumilus MTCC 1456 after 24 to 48 hr by tube dilution method
Staphylococcus aureus [16] = test: Antibacterial activity against Staphylococcus aureus MTCC 1430 at 1000 ug/ml after 48 hr by cup-plate method; conditions: MTCC 1430, 48 h, read-out: DIZ
Escherichia coli [17] = test: Antibacterial activity against Escherichia coli MTCC 1573 at 500 ug/ml after 48 hr by cup-plate method; conditions: MTCC 1573, 48 h, read-out: DIZ
Micrococcus luteus [18] = test: Antibacterial activity against Micrococcus luteus MTCC 1538 at 250 ug/ml after 48 hr by cup-plate method; conditions: MTCC 1538, 48 h, read-out: DIZ
Escherichia coli [19] = test: Antibacterial activity against Escherichia coli MTCC 1573 at 100 ug/ml after 48 hr by cup-plate method; conditions: MTCC 1573, 48 h, read-out: DIZ
Penicillium chrysogenum [20] = test: Antifungal activity against Penicillium chrysogenum MTCC 161 at 1000 ug/ml after 48 hr by cup-plate method; conditions: MTCC 161, 48 h, read-out: DIZ
Aspergillus niger [21] = test: Antifungal activity against Aspergillus niger MTCC 2546 at 250 ug/ml after 48 hr by cup-plate method; conditions: MTCC 2546, 48 h, read-out: DIZ
Staphylococcus aureus [22] = test: Antibacterial activity against Staphylococcus aureus MTCC 1430 at 1250 ug/ml after 48 hr by cup-plate method; conditions: MTCC 1430, 48 h, read-out: DIZ
Micrococcus luteus [23] = test: Antibacterial activity against Micrococcus luteus MTCC 1538 at 1000 ug/ml after 48 hr by cup-plate method; conditions: MTCC 1538, 48 h, read-out: DIZ
Pseudomonas aeruginosa [24] = test: Antibacterial activity against Pseudomonas aeruginosa MTCC 424 at 750 ug/ml after 48 hr by cup-plate method; conditions: MTCC 424, 48 h, read-out: DIZ
Bacillus pumilus [25] = test: Antibacterial activity against Bacillus pumilus MTCC 1456 at 1000 ug/ml after 48 hr by cup-plate method; conditions: MTCC 1456, 48 h, read-out: DIZ
Bacillus pumilus [26] = test: Antibacterial activity against Bacillus pumilus MTCC 1456 at 750 ug/ml after 48 hr by cup-plate method; conditions: MTCC 1456, 48 h, read-out: DIZ
Penicillium chrysogenum [27] = test: Antifungal activity against Penicillium chrysogenum MTCC 161 after 24 to 48 hr by tube dilution method
Pseudomonas aeruginosa [28] = test: Antibacterial activity against Pseudomonas aeruginosa MTCC 424 at 250 ug/ml after 48 hr by cup-plate method; conditions: MTCC 424, 48 h, read-out: DIZ
Aspergillus niger [29] = test: Antifungal activity against Aspergillus niger MTCC 2546 at 500 ug/ml after 48 hr by cup-plate method; conditions: MTCC 2546, 48 h, read-out: DIZ
Micrococcus luteus [30] = test: Antibacterial activity against Micrococcus luteus MTCC 1538 at 1250 ug/ml after 48 hr by cup-plate method; conditions: MTCC 1538, 48 h, read-out: DIZ
Pseudomonas fluorescens [31] = test: Antibacterial activity against Pseudomonas fluorescens MTCC 2421 at 250 ug/ml after 48 hr by cup-plate method; conditions: MTCC 2421, 48 h, read-out: DIZ
Aspergillus niger [32] = test: Antifungal activity against Aspergillus niger MTCC 2546 after 24 to 48 hr by tube dilution method
Micrococcus luteus [33] = test: Antibacterial activity against Micrococcus luteus MTCC 1538 after 24 to 48 hr by tube dilution method
Escherichia coli [34] = test: Antibacterial activity against Escherichia coli MTCC 1573 at 1000 ug/ml after 48 hr by cup-plate method; conditions: MTCC 1573, 48 h, read-out: DIZ
Pseudomonas aeruginosa [35] = test: Antibacterial activity against Pseudomonas aeruginosa MTCC 424 at 100 ug/ml after 48 hr by cup-plate method; conditions: MTCC 424, 48 h, read-out: DIZ
Staphylococcus aureus [36] = test: Antibacterial activity against Staphylococcus aureus MTCC 1430 at 500 ug/ml after 48 hr by cup-plate method; conditions: MTCC 1430, 48 h, read-out: DIZ
Aspergillus niger [37] = test: Antifungal activity against Aspergillus niger MTCC 2546 at 1000 ug/ml after 48 hr by cup-plate method; conditions: MTCC 2546, 48 h, read-out: DIZ
Pseudomonas fluorescens [38] = test: Antibacterial activity against Pseudomonas fluorescens MTCC 2421 at 750 ug/ml after 48 hr by cup-plate method; conditions: MTCC 2421, 48 h, read-out: DIZ
Pseudomonas aeruginosa [39] = test: Antibacterial activity against Pseudomonas aeruginosa MTCC 424 at 1250 ug/ml after 48 hr by cup-plate method; conditions: MTCC 424, 48 h, read-out: DIZ
Staphylococcus aureus [40] = test: Antibacterial activity against Staphylococcus aureus MTCC 1430 at 750 ug/ml after 48 hr by cup-plate method; conditions: MTCC 1430, 48 h, read-out: DIZ
Bacillus subtilis [41] = test: Antibacterial activity against Bacillus subtilis MTCC 441 at 750 ug/ml after 48 hr by cup-plate method; conditions: MTCC 441, 48 h, read-out: DIZ
Penicillium chrysogenum [42] = test: Antifungal activity against Penicillium chrysogenum MTCC 161 at 500 ug/ml after 48 hr by cup-plate method; conditions: MTCC 161, 48 h, read-out: DIZ
Bacillus pumilus [43] = test: Antibacterial activity against Bacillus pumilus MTCC 1456 at 250 ug/ml after 48 hr by cup-plate method; conditions: MTCC 1456, 48 h, read-out: DIZ
Pseudomonas fluorescens [44] = test: Antibacterial activity against Pseudomonas fluorescens MTCC 2421 at 100 ug/ml after 48 hr by cup-plate method; conditions: MTCC 2421, 48 h, read-out: DIZ

O=[N+]([O-])c1ccc(C2CC(c3cccc4ccccc34)=NN2c2ccc([N+](=O)[O-])cc2)cc1 (centres undefined)
zone of inhibition at 500 µg/mL (Micrococcus luteus [1]): 11 mm
zone of inhibition at 1250 µg/mL (Bacillus subtilis [2]): 19 mm
zone of inhibition at 500 µg/mL (Pseudomonas fluorescens [3]): 11 mm
zone of inhibition at 500 µg/mL (Bacillus subtilis [4]): 13 mm
MIC (Staphylococcus aureus [5]): 200 µg/mL (≈ 456 µM)
zone of inhibition at 100 µg/mL (Bacillus subtilis [6]): 11 mm
zone of inhibition at 250 µg/mL (Penicillium chrysogenum [7]): 10 mm
MIC (Bacillus subtilis [8]): 50 µg/mL (≈ 114 µM)
zone of inhibition at 500 µg/mL (Bacillus pumilus [9]): 10 mm
zone of inhibition at 1000 µg/mL (Pseudomonas fluorescens [10]): 18 mm
MIC (Escherichia coli [11]): 50 µg/mL (≈ 114 µM)
zone of inhibition at 1250 µg/mL (Escherichia coli [12]): 17 mm
zone of inhibition at 1250 µg/mL (Penicillium chrysogenum [13]): 17 mm
zone of inhibition at 500 µg/mL (Pseudomonas aeruginosa [14]): 11 mm
MIC (Bacillus pumilus [15]): 50 µg/mL (≈ 114 µM)
zone of inhibition at 1000 µg/mL (Staphylococcus aureus [16]): 12 mm
zone of inhibition at 500 µg/mL (Escherichia coli [17]): 12 mm
zone of inhibition at 250 µg/mL (Micrococcus luteus [18]): 9 mm
zone of inhibition at 100 µg/mL (Escherichia coli [19]): 10 mm
zone of inhibition at 1000 µg/mL (Penicillium chrysogenum [20]): 15 mm
zone of inhibition at 250 µg/mL (Aspergillus niger [21]): 13 mm
zone of inhibition at 1250 µg/mL (Staphylococcus aureus [22]): 13 mm
zone of inhibition at 1000 µg/mL (Micrococcus luteus [23]): 13 mm
zone of inhibition at 750 µg/mL (Pseudomonas aeruginosa [24]): 13 mm
zone of inhibition at 1000 µg/mL (Bacillus pumilus [25]): 18 mm
zone of inhibition at 750 µg/mL (Bacillus pumilus [26]): 15 mm
MIC (Penicillium chrysogenum [27]): 50 µg/mL (≈ 114 µM)
zone of inhibition at 250 µg/mL (Pseudomonas aeruginosa [28]): 10 mm
zone of inhibition at 500 µg/mL (Aspergillus niger [29]): 14 mm
zone of inhibition at 1250 µg/mL (Micrococcus luteus [30]): 15 mm
zone of inhibition at 250 µg/mL (Pseudomonas fluorescens [31]): 10 mm
MIC (Aspergillus niger [32]): 30 µg/mL (≈ 68.4 µM)
MIC (Micrococcus luteus [33]): 150 µg/mL (≈ 342 µM)
zone of inhibition at 1000 µg/mL (Escherichia coli [34]): 15 mm
zone of inhibition at 100 µg/mL (Pseudomonas aeruginosa [35]): 9 mm
zone of inhibition at 500 µg/mL (Staphylococcus aureus [36]): 10 mm
zone of inhibition at 1000 µg/mL (Aspergillus niger [37]): 20 mm
zone of inhibition at 750 µg/mL (Pseudomonas fluorescens [38]): 14 mm
zone of inhibition at 1250 µg/mL (Pseudomonas aeruginosa [39]): 19 mm
zone of inhibition at 750 µg/mL (Staphylococcus aureus [40]): 11 mm
zone of inhibition at 750 µg/mL (Bacillus subtilis [41]): 15 mm
zone of inhibition at 500 µg/mL (Penicillium chrysogenum [42]): 12 mm
zone of inhibition at 250 µg/mL (Bacillus pumilus [43]): 8 mm
zone of inhibition at 100 µg/mL (Pseudomonas fluorescens [44]): 9 mm
